Here are results for one molecule from US20230406803A1, “TROPOLONE DERIVATIVES AND TAUTOMERS THEREOF FOR IRON REGULATION IN ANIMALS” (Kinesid Therapeutics, Inc, priority 2020, published 2023).

The nature of data set [1]: Human liver microsomal stability assay. The format is in vitro ADME. The following applies: human liver microsomes. From the text:
(§1) Further examples of useful assays include metabolic stability assays, such as but not limited to e.g., liver microsomal clearance assays which provide measurement such as, but not limited to e.g., liver microsomal clearance half-life (t1/2), liver microsomal intrinsic clearance (CLint), and the like. Such measurements are useful in assessing various characteristics of a subject compound, such as e.g., the availability of an intact compound to provide a pharmacological effect. A compound having a longer microsomal clearance half-life (t1/2), e.g., than a reference compound, will provide better exposure of the intact compound and greater availability to produce the relevant pharmacological effect. A compound having a less microsomal clearance, e.g., as measured by liver microsomal intrinsic clearance (CLint), will similarly result in greater exposure of the intact compound available for an increase in the relevant pharmacological effect, e.g., as compared to that of a reference compound with a higher liver microsomal intrinsic clearance (CLint). Other useful assays include in vitro hepatocyte metabolic stability assays.
(§2) Such assessments included human and mouse liver microsomal stability assays as well as 6-hour mouse PK studies.

For data set [2], the system named is DMT1-deficient Caco-2 cells. Put plainly: shDMT1-Caco2 55Fe transport assay. Conditions: 3 μM, 4 h; fold change over DMSO normalized to hinokitiol at 3 μM (FC hino=1). The format is cell-based.
Data set [3] is described as follows: Mouse liver microsomal stability assay. Conditions: mouse liver microsomes. The data set is classed as in vitro ADME.
From the text: as §1, §2

As to `CC(C)c1cccc(=O)c(O)c1` [hinokitiol, reference compound], the microsomal CLint in data set [1] (read-out: Human CLint) worked out at 120 µL/min/mg; in data set [3] (read-out: Mouse CLint) it was 46.7 µL/min/mg. The figures for the half-life in data set [1] (read-out: Human t1/2) and in data set [3] (read-out: Mouse t1/2) were 11.6 min and 29.7 min, respectively. The “Caco2 shDMT1 transport FC @ 3 μM, 4 h” value in data set [2] worked out at 1.
